# Results from paper PMC12198282, “Application of a high-density microelectrode array assay using a 3D human iPSC-derived brain microphysiological system model for in vitro neurotoxicity screening of environmental compounds” (Archives of Toxicology, 2025).
# Like-named read-outs stand apart in the source and are kept apart here.
# Experiments:
# 2D rat cortical cultures [1] = settings: rNFA mc5 hit call; cytotoxicity AlamarBlue; cited from earlier work
# 2D rat cortical cultures [2] = settings: rNFA mc5 hit call; cytotoxicity LDH; cited from earlier work
# [3] = test system: human iPSC-derived 3D BrainSpheres; assay: BrainSphere MEA assay (HD-MEA, 13-day exposure, concentration-response); type: cell-based; settings: for EC (benchmark response 1.349 SD): 312 h; for AC50: concentration at 50% maximal activity, Supplement 3 prints it also for curves with hit call 0; on hitc Mean.Spheroid.Burst.Duration: key: 1 (active); 0 (inactive); on hitc Mean.Spheroid.Burst.ISI: key: 1 (active); 0 (inactive); on hitc Mean.Spheroid.Burst.Peak.Firing.Rate: key: 1 (active); 0 (inactive); on hitc Mean.Spheroid.Firing.Rate: key: 1 (active); 0 (inactive); on hitc Mean.Spheroid.IBI: key: 1 (active); 0 (inactive); on hitc Mean.Spheroid.Nonburst.ISI: key: 1 (active); 0 (inactive); on hitc Mean.Spheroid.Spikes.per.Burst.per.Electrode: key: 1 (active); 0 (inactive); on hitc Mean.Spheroid.Spikes.per.Burst: key: 1 (active); 0 (inactive); on hitc Spheroid.Burst.Frequency: key: 1 (active); 0 (inactive); on hitc Spheroid.Spike.Amplitude.90th.Percentile: key: 1 (active); 0 (inactive)
# Description: A volume of 1 ml of Tergazyme (1% solution in deionized water) was added to each well of the MaxTwo 6-Well Plate (MaxWell Biosystems) and incubated overnight under constant gyratory shaking (88 RPM) at 37 °C and 5% CO2. The next day, Tergazyme solution was removed, and plates were washed with distilled water and ethanol. After remaining ethanol was evaporated, wells were washed with PBS. Then, 200 µl of Poly-D-Lysine (Gibco, A38904 - 01) was added on top of the electrodes and incubated at 37 °C and 5% CO2 for 3 h (humidified). Poly-D-Lysine was then removed, and wells were coated with 100 µl of 0.1 mg/ml laminin coating solution (Sigma-Aldrich, L2020 - 1 mg) and incubated for 2 h at 37 ℃ and 5% CO2 (humidified). The laminin was removed after incubation. Using a 1 ml micropipette, 1 ml of medium containing BrainSpheres (7 weeks differentiated), approximately 25 BrainSpheres per ml, was plated on top of the HD-MEA chip (Fig. 1A). Afterwards, the plate was placed in an incubator at 37 °C and 5% CO2 and moved in circles to accumulate the BrainSpheres on top of the electrode area (Fig. 1A). The plate was kept in an incubator (humidified) for 2 days to allow attachment of the BrainSpheres with no gyratory shaking of the plates.
# The MaxTwo high-density microelectrode array system (MaxWell Biosystems AG, Zurich, Switzerland) was used to measure neural activity with MaxTwo 6-well plates, where every well includes an integrated chip with 26,400 platinum electrodes arranged in an area of 3.85 × 2.10 mm^2 ([…]) (Muller et al. [2015]). The data were recorded and analyzed with the MaxLab Live Software (version 22.2.22). First, the MaxLab live ActivityScan Assay was used to identify the activity and positioning of the BrainSpheres on the array by scanning all the 26,400 electrodes in 29 configurations in a well (Assay Parameters: Configuration = Full; Recording time per configuration = 60 s (s)). The settings gain = 512, high-pass-filter (HPF): ~ 1 Hz and spike threshold = 5 X root-mean square (RMS) noise were used for all HD-MEA recordings. Circular regions of interest (ROI) were manually selected in the Activity Map where neuronal activity was apparent by an increased activity (Fig. 2). Over the course of the 13-day experiment, the same selected regions and electrodes were measured using the MaxLab Live Network Assay (600 s recording time).
# A custom analysis framework was used to extract the MaxLab Live neuronal metrics for the individual BrainSpheres. For this, electrodes comprising a single ROI (i.e., individual BrainSphere; Fig. 2D) were grouped using distance-based clustering (fcluster method of Scipy library, Python 3.7) and neural metrics were calculated for the clustered electrodes for every ROI separately. Figure 2E presents a raster plot illustrating the activity associated with individual Regions of Interest (ROIs). […] Ten MaxLab Live neural metrics (endpoints) were evaluated from the MaxLab live ActivityScan and Network Assay in this study. See Table 3 for the endpoint definitions, tuned parameters, and activity type (general versus network connectivity).
# The BrainSphere MEA assay measured changes in neural activity during a 13-day chemical exposure. The first recording day of the concentration–response screening protocol (day of exposure (DOE) 0) occurred after 7 weeks of BrainSphere differentiation, 48 h after plating on HD-MEA plates (Fig. 1B). The study included at least three biological replicates (one well per plate) from separate experiments (e.g., three different plates on three different days) and each well included multiple BrainSpheres which were considered technical replicates.
# [4] = AUC over 13-day exposure, tcplfit2
# [5] = tcplfit2 BMD at benchmark response (1.349*SD of baseline controls)
# [6] = tcplfit2 output ACC, activity cutoff in Supplemental Table 1
compound,measurement,setting,value
CC(C)(c1ccc(O)cc1)c1ccc(O)cc1 [Bisphenol A],hitc CCTE_Shafer_MEA_dev_AB,2D rat cortical cultures [1],0
same,hitc CCTE_Shafer_MEA_dev_LDH,2D rat cortical cultures [2],0
same,Difference of minimum potency between BrainSphere MEA assay and rNFA,"[3]; 5th percentile of AC50 values by chemical, above 0.5 = more potent in the rNFA",≤ 0.5 log10 µM
same,hitc Mean.Spheroid.Burst.Duration,[3]; [4],1
same,hitc Mean.Spheroid.Burst.ISI,[3]; [4],1
same,hitc Mean.Spheroid.Burst.Peak.Firing.Rate,[3]; [4],1
same,hitc Mean.Spheroid.Firing.Rate,[3]; [4],1
same,hitc Mean.Spheroid.IBI,[3]; [4],1
same,hitc Mean.Spheroid.Nonburst.ISI,[3]; [4],0
same,hitc Mean.Spheroid.Spikes.per.Burst,[3]; [4],1
same,hitc Mean.Spheroid.Spikes.per.Burst.per.Electrode,[3]; [4],1
same,hitc Spheroid.Burst.Frequency,[3]; [4],1
same,hitc Spheroid.Spike.Amplitude.90th.Percentile,[3]; [4],1
same,EC50,"[3]; Homo sapiens, 5th percentile across active AC50 values per chemical, read-out: Minimum potency",29.1 µM
same,EC (benchmark response 1.349 SD),"[3]; Homo sapiens, tcplfit2 BMD at benchmark response (1.349*SD of baseline controls), read-out: BMD Mean.Spheroid.Burst.ISI",27 µM
same,EC (benchmark response 1.349 SD),"[3]; Homo sapiens, tcplfit2 BMD at benchmark response (1.349*SD of baseline controls), read-out: BMD Mean.Spheroid.Nonburst.ISI",50 µM
same,AC50,"[3]; Homo sapiens, read-out: ac50 Mean.Spheroid.Burst.Duration",29.4 µM
same,AC50,"[3]; Homo sapiens, read-out: ac50 Mean.Spheroid.Burst.ISI",29.2 µM
same,AC50,"[3]; Homo sapiens, read-out: ac50 Mean.Spheroid.Burst.Peak.Firing.Rate",30 µM
same,AC50,"[3]; Homo sapiens, read-out: ac50 Mean.Spheroid.Firing.Rate",29 µM
same,AC50,"[3]; Homo sapiens, read-out: ac50 Mean.Spheroid.IBI",45 µM
same,AC50,"[3]; Homo sapiens, read-out: ac50 Mean.Spheroid.Nonburst.ISI",45 µM
same,AC50,"[3]; Homo sapiens, read-out: ac50 Mean.Spheroid.Spikes.per.Burst",45 µM
same,AC50,"[3]; Homo sapiens, read-out: ac50 Mean.Spheroid.Spikes.per.Burst.per.Electrode",29.1 µM
same,AC50,"[3]; Homo sapiens, read-out: ac50 Spheroid.Burst.Frequency",45 µM
same,AC50,"[3]; Homo sapiens, read-out: ac50 Spheroid.Spike.Amplitude.90th.Percentile",45 µM
same,EC50,"[3]; Homo sapiens, mean across active AC50 values per chemical, read-out: Mean potency",36.3 µM
same,AC50,[3]; read-out: ac50 Mean.Spheroid.Burst.Peak.Firing.Rate,29.6 µM
same,AC50,[3]; read-out: ac50 Mean.Spheroid.Firing.Rate,29.3 µM
same,Percent active,[3]; metrics active out of the total number of metrics screened,90%
same,BMD Mean.Spheroid.Burst.Duration,[3]; [5],28 µM
same,BMD Mean.Spheroid.Burst.Peak.Firing.Rate,[3]; [5],28 µM
same,BMD Mean.Spheroid.Firing.Rate,[3]; [5],30 µM
same,BMD Mean.Spheroid.IBI,[3]; [5],31 µM
same,BMD Mean.Spheroid.Spikes.per.Burst,[3]; [5],40 µM
same,BMD Mean.Spheroid.Spikes.per.Burst.per.Electrode,[3]; [5],28 µM
same,BMD Spheroid.Burst.Frequency,[3]; [5],47 µM
same,BMD Spheroid.Spike.Amplitude.90th.Percentile,[3]; [5],33 µM
same,ACC Mean.Spheroid.Burst.Duration,[3]; [6],27 µM
same,ACC Mean.Spheroid.Burst.ISI,[3]; [6],26 µM
same,ACC Mean.Spheroid.Burst.Peak.Firing.Rate,[3]; [6],28 µM
same,ACC Mean.Spheroid.Firing.Rate,[3]; [6],31 µM
same,ACC Mean.Spheroid.IBI,[3]; [6],44 µM
same,ACC Mean.Spheroid.Nonburst.ISI,[3]; [6],58 µM
same,ACC Mean.Spheroid.Spikes.per.Burst,[3]; [6],50 µM
same,ACC Mean.Spheroid.Spikes.per.Burst.per.Electrode,[3]; [6],29 µM
same,ACC Spheroid.Burst.Frequency,[3]; [6],42 µM
same,ACC Spheroid.Spike.Amplitude.90th.Percentile,[3]; [6],44 µM
same,Hits,"[3]; total number of active endpoints out of 10 MEA activity metrics, 13-day exposure",9
